Assays:
Lyn kinase = biological target: T1, Lyn kinase (Homo sapiens, UniProt P07948); experiment: Lyn Kinase Assay; type: biochemical; settings: test concentration of 2 μM; read-out: Lyn Inhibition (%) Inh
T1 construct: purchased Upstate Biotechnology, Lake Placid, N.Y
Experimental: A mixture of a 10× kinase buffer (500 mM MOPS at pH 7.5, 1 mM EGTA, 1 mM Sodium Vanadate, 1% β-mercaptoethanol and 100 mM Magnesium Acetate), ATP (5 μM final from a 10 mM stock), polyGluTyr (0.1 mg/mL final from a 1 mg/mL stock), γ-^33P ATP (10 μCi/μL stock) and water (20 μL/well) was added to each well of a Streptavidin Flashplate.
Test compound in 100% DMSO (0.5 μL) was added to the appropriate wells. Diluted Lyn kinase (human) (Upstate Biotechnology, Lake Placid, N.Y.) (diluted in a buffer consisting of 50 mM Tris at pH 7.5, 0.1 mM EGTA, Sodium Vanadate (0.1 mM), 13-mercaptoethanol (0.1%) and 1 mg/mL bovine serum albumin) (2.5 μL) was added to the wells to initiate the reactions.
The reaction plates were incubated at 30° C. for 40 min. The reaction was terminated by the addition of a 3% phosphoric acid solution (5 μL). The reaction product (10 μL) was spotted onto a P30 filtermat and washed for 5 minutes in phosphoric acid (75 mM). The wash sequence was repeated two more times, followed with one final wash in methanol. The plates were then dried, sealed and read on the TopCount scintillation counter after adding 30 μL scintillation fluid. Percent inhibition was derived according to the procedure described in Example 1. The percent inhibition results are shown in Table 4 at a test concentration of 2 μM.

[1] = system: HeLa cervical adenocarcinoma; experiment: Cell Proliferation Inhibition Assay (14C-thymidine incorporation), HeLa; type: cell-based; settings: Homo sapiens; HeLa cells
Experimental: (§1) The ability of a test compound to inhibit unregulated cell proliferation was determined by measuring incorporation of ^14C-labelled thymidine into newly synthesized DNA within cell lines derived from carcinomas originating from several tissues. Accordingly, the anti-proliferative effect of a compound on cells with a variety of phenotypes may be determined.
(§2) Carcinoma cell lines include those such as HeLa cervical adenocarcinoma (American Type Culture Collection (ATCC), Virginia, Cat. #CCL-2), A375 malignant melanoma (ATCC CRL-1619), SK-OV-3 ovarian adenocarcinoma (ATCC HTB-77), HCT-116 colon carcinoma (CCL-247), PC-3 prostate adenocarcinoma (ATCC CRL-1435), and MDA-MB-231 (Xenogen Corp.)
(§3) The carcinoma cells were trypsinized and counted. The cells (3000-8000 count) were added to each well of a 96-well CytoStar tissue culture treated scintillating microplate (Amersham #RPNQ0160) in complete medium (100 μL) and the plate was then incubated in complete medium for 24 hrs at 37° C. in an […] atmosphere containing 5% CO2. Test compound (1 μL) in 100% DMSO was added to the plate test-wells with DMSO only added to control-wells. The plate was incubated in complete medium for a second 24 hr period at 37° C. in an atmosphere containing 5% CO2.
(§4) An aliquot of a solution of methyl ^14C-thymidine (56 mC/mmol) (NEN #NEC568 or Amersham #CFA532) and complete medium (20 uL to provide 0.2 μCi/well) was then added to each well and the plate was incubated for a third 24 hr period at 37° C. in an atmosphere containing 5% CO2. The plate contents were then discarded, the plate was washed twice with PBS (200 μL) and then PBS (200 μL) was added to each well. The plate was sealed and the degree of methyl ^14C-thymidine incorporation was quantified on a Packard Top Count.

HCT-116 colon carcinoma = experiment: Cell Proliferation Inhibition Assay (14C-thymidine incorporation), HCT116; type: cell-based; settings: Homo sapiens, HCT116 cells
Experimental: as §1, §2, §3, §4

EGFR = biological target: T2, EGFR (Homo sapiens, UniProt P00533); experiment: EGFR Kinase Assay; type: biochemical; settings: test concentration of 2 μM (compounds without an IC50); read-out: EGFR percent inhibition
T2 construct: The intracellular portion of EGFR started at nucleotide 2189 (corresponding to amino acid 667) and ended at the termination codon; made in house; host or cells: Sf9 insect cells (baculovirus)
T2 sequence (P00533 669-1210 limits assumed): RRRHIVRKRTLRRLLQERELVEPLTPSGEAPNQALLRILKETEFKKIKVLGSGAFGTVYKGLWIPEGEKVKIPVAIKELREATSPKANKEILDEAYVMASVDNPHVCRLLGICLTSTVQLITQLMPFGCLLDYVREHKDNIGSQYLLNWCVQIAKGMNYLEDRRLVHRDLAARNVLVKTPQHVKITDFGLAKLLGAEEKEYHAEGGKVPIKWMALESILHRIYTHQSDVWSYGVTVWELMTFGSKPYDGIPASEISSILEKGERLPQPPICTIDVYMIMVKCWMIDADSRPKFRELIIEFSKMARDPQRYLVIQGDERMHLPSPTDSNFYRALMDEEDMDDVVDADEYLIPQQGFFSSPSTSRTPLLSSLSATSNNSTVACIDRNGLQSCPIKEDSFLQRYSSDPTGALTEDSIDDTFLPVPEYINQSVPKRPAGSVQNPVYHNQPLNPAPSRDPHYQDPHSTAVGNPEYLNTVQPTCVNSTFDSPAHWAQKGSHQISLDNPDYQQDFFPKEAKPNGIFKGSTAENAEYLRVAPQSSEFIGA
Source text: The EGFR kinase used was a fusion of Glutathione-S-Transferase (GST) and a PCR amplified intracellular portion of EGFR (NM_005228). The intracellular portion of EGFR started at nucleotide 2189 (corresponding to amino acid 667) and ended at the termination codon. The portion was PCR amplified with primers that added the lambda attB sequences to each end, recombined into an entry vector, then into a GST destination vector (as described in Gateway Technologies Manual by Invitrogen Corporation, Carlsbad, Calif.).
The destination vector was recombined in the DH10BAC strain of bacteria to produce a bacmid. The bacmid was transfected into Sf 9 cells and the supernatant containing the baculovirus was collected. The GSTEGFR protein was purified using large cultures of Sf 9 cells infected with stock virus. After an appropriate period of time, the cells were collected and lysed. The GSTEGFR was then purified from the lysate on Glutathione-Sepharose columns (as described by Amersham Biosciences, Buckinghamshire, United Kingdom).
The EGFR substrate was prepared by biotinylating polyGluTyr (128 mg) (Sigma, St. Louis, Mo.) in a 1×PBS buffer incubated together with a 12-fold molar excess of Sulfo-NHS-LC-Biotin on ice for at least 2 hrs. The free biotin was separated from the biotinylated polyGluTyr on a gel filtration column.
A mixture of a 10× kinase buffer (500 mM Tris at pH 8.0, 100 mM Magnesium Chloride and 1 mM Sodium Vanadate), DTT (1 mM final from 500 mM stock), ATP (5 μM final from 10 mM stock), biotinylated polyGluTyr (10 μg/μL stock), γ-^33P ATP (10 μCi/μL stock) and water was added to each well (90 μL/well) of a Streptavidin Flashplate (Perkin Elmer, Wellesley, M A).
Test compound in 100% DMSO (2 μL) was added to the appropriate wells. Diluted GSTEGFR (1:300 dilution in 50 mM Tris at pH 8.0 and 0.1% bovine serum albumin) (10 μL) was added to the wells to initiate the reactions.
The plates were incubated at 30° C. for 1 hr with shaking. The reacted contents were removed and the plates were sequentially washed three times with a 1×PBS stop buffer (300 μL without Magnesium and Calcium) and 100 mM EDTA. After the final wash, the same stop buffer (200 μL) was added to the wells. The plates were then sealed and read on the TopCount scintillation counter.
Test compounds were assayed in triplicate at 16 concentrations at half-log dilutions starting at 200 uM. A maximum and minimum signal for the assay was determined on each plate. The percent inhibition of a test compound was calculated according to the formula
For a series of test concentrations, the IC50 was derived by graphing percent inhibition against the log of the concentrations tested for a given compound. For those compounds without an IC50, the percent inhibition results are shown at a test concentration of 2 μM.

T1 sequence (P07948 whole entry): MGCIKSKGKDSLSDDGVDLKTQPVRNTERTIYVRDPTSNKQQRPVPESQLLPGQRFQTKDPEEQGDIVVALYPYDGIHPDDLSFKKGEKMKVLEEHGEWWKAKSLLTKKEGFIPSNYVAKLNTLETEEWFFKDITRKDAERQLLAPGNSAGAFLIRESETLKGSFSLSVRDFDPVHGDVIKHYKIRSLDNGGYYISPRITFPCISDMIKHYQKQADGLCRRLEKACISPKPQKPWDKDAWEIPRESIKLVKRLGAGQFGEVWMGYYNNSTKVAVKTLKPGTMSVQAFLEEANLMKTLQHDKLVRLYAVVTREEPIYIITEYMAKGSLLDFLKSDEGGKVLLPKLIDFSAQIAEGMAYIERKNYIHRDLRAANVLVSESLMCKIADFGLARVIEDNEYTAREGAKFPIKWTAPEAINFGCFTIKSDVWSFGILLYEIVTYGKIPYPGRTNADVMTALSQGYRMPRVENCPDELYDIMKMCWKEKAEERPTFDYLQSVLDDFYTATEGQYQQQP

Row | SMILES | inhibition at 2 µM (Lyn kinase) | IC50 [1] | IC50 (HCT-116 colon carcinoma) | inhibition at 2 µM (EGFR)
1 | Cc1c(C(=O)NCCN2CCOCC2)sc2ncnc(Nc3ccc(Oc4ccccc4)cc3)c12 [Cpd 24] | 23% | > 100 µM | > 10 µM | –
2 | Cc1cc2c(F)c(Oc3ncnc4sc(C(=O)NCCN5CCOCC5)c(C)c34)ccc2[nH]1 [Cpd 19, 4-(4-fluoro-2-methyl-1H-indol-5-yloxy)-5-methyl-thieno[2,3-d]pyrimidine-6-carboxylic acid (2-morpholin-4-yl-ethyl)-amide] | 16% | > 10 µM | > 10 µM | 10%
3 | Cc1cc2c(F)c(Oc3ncnc4sc(C(=O)NCCN5CCCCC5)c(C)c34)ccc2[nH]1 [Cpd 21, 4-(4-fluoro-2-methyl-1H-indol-5-yloxy)-5-methyl-thieno[2,3-d]pyrimidine-6-carboxylic acid (2-piperidin-1-yl-ethyl)-amide] | 8% | 8.5 µM | 9.4 µM | –

More lines, now with the values ahead:

Row | inhibition at 2 µM (Lyn kinase) | IC50 [1] | IC50 (HCT-116 colon carcinoma) | inhibition at 2 µM (EGFR) | SMILES
4 | 20% | > 10 µM | > 10 µM | – | Cc1cc2c(F)c(Oc3ncnc4sc(C(=O)Nc5ccc(CN6CCOCC6)cc5)c(C)c34)ccc2[nH]1 [Cpd 20, 4-(4-fluoro-2-methyl-1H-indol-5-yloxy)-5-methyl-thieno[2,3-d]pyrimidine-6-carboxylic acid (4-morpholin-4-ylmethyl-phenyl)-amide]
5 | -2% | 15.2 µM | 22.3 µM | – | Cc1cc2c(F)c(Oc3ncnc4sc(C(=O)NCCN5CCCC5)c(C)c34)ccc2[nH]1 [Cpd 22, 4-(4-fluoro-2-methyl-1H-indol-5-yloxy)-5-methyl-thieno[2,3-d]pyrimidine-6-carboxylic acid (2-pyrrolidin-1-yl-ethyl)-amide]
6 | 23% | > 10 µM | > 10 µM | – | COCCNC(=O)c1sc2ncnc(Oc3ccc4[nH]c(C)cc4c3F)c2c1C [Cpd 27, 4-(4-fluoro-2-methyl-1H-indol-5-yloxy)-5-methyl-thieno[2,3-d]pyrimidine-6-carboxylic acid (2-methoxy-ethyl)-amide]
7 | 9% | > 10 µM | 7.1 µM | – | Cc1c(C(=O)Nc2ccc(CN3CCOCC3)cc2)sc2ncnc(Nc3ccc(Oc4ccccc4)cc3)c12 [Cpd 23, 5-methyl-4-(4-phenoxy-phenylamino)-thieno[2,3-d]pyrimidine-6-carboxylic acid (4-morpholin-4-ylmethyl-phenyl)-amide]
